“Also recorded” adds a separate entry of the source.
Columns and labels:
[1] = Blood kinetics and biodistribution in C57BL/6J mice; details: mouse, in vivo; for blood pool activity: iv
Procedure: Biodistribution at 2 h post-injection (p.i.) and blood clearance were evaluated in C57Bl/6J mice injected with 16±5 MBq of ^99mTc-1 (n=6) or ^99mTc-RP805 (n=6). In vivo targeting to aneurysm and specificity of ^99mTc-1 was evaluated in high-fat fed apolipoprotein E-deficient mice, 4 weeks after carotid aneurysm induction through peri-adventitial application of CaCl2. The animals were injected with 31±14 MBq of ^99mTc-1 with (n=3) or without (n=4) pre-injection of non-labeled 1.

[2] = Partition coefficient between n-octanol and water or Tris buffer; format: physicochemical; details: for logD: coligands Tricine-TPPTS
Procedure: Matrix metalloproteinase-targeted imaging agents known in the art suffer from poor solubility of their precursors and have blood clearance times that make them ill-suited for practical application. The partition coefficient (Log D) values of ^99mTc-1 and ^99mTc-RP805 were determined based on their proportional distribution between n-octanol and water or Tris buffer at pH 7.4. […] Compared with ^99mTc-RP805 and its precursor, the increased hydrophilicity of ^99mTc-1 (and 1) can in one aspect be ascribed to the introduction of arginine residue.

Aqueous solubility = format: physicochemical
[3] = In vivo radiochemical stability, radio-HPLC of urine; design: species or system C57BL/6J mouse; details: urine collected 2 hours after intravenous injection
Procedure: (§1) Radiolabeling quality control was performed by reverse phase radio-HPLC analysis (HPLC system 2489, Waters) with a flow rate of 1 mL/min using an analytical column (JUPITER® 4 μm Proteo 90 Å, Phenomenex) with gradients of solvent A (0.16% ammonium formate in aqueous solution) and solvent B (0.16% ammonium formate in 90% acetonitrile). The HPLC gradients were programmed as follows: 10% B for 2 min, 10-70% B in 5 min, 5 min 70% B and 70-90% B in 5 min. In vitro and in vivo stability of the tracer were analyzed by radio-HPLC following in vitro incubation in mouse blood at 37° C. for up to 5 hours, and from urine collected at 2 hours after tracer injection, respectively.

[4] = Stability in saline / radiolabeling media by RP-HPLC; format: physicochemical; details: room temperature
[5] = test system: CaCl2-induced carotid aneurysm; assay: Quantitative autoradiography of carotid aneurysm, blocking study; format: in vivo, apoE−/− mice; details: autoradiography at 2 h
Procedure: Arterial aneurysm was induced by exposing the left common carotid artery of apolipoprotein E-deficient (apoE^−/−) mice to calcium chloride. Briefly, 4- to 6-wk-old female apoE^−/− mice (n=96; Jackson Laboratory) were fed high-cholesterol chow ad libitum. After 1 wk, the carotid arteries were exposed by blunt-end dissection under anesthesia. The left common carotid artery just below the carotid bifurcation was adventitially exposed to a 10% solution of CaCl2 for 20 min. The opposite carotid artery was exposed to normal saline and served as a control for imaging studies (Razavian, et al., 2010, J Nucl Med. 51(7):1107-15).
For autoradiography, the specimens were mounted on a board and placed in contact with to a reusable phosphor screen (MultiSensitive Phosphor Screen, PerkinElmer) along with standards of known activity. The screen was scanned in a phosphor imager system (Typhoon Trio, GE Healthcare Life Sciences) at a pixel size of 25×25 μm and images were analyzed using the Fiji software. Tracer uptake was quantified using a standard curve and expressed a % injected dose (ID)/pixel.
The tissues were placed on a phosphor screen (MultiSensitive Phosphor Screen, PerkinElmer) along with standards of known activity. […]

[6] = Radiochemical stability in mouse blood by radio-HPLC; format: in vitro ADME; details: in vitro incubation at 37° C. up to 5 hours
Procedure: Tracers were incubated in blood (200 μL) with gentle agitation (Thermo mixer, 1000 rpm) at 37° C. for 4 h. At 0, 2, and 4 h time points, 40 μL of blood sample were collected and centrifuged at 4° C. (3000 rpm, 20 min). 10 μL of the supernatant (plasma) were collected and diluted in methanol (90 μL). The sample was then vortexed for 30 s at room temperature and centrifuged at 4° C. (3000 rpm, 15 min). 50 μL of the supernatant were concentrated, filtered and analysed by radioHPLC or LC-MS.
as §1

[7] = all tissues evaluated, but not the bile; 2 h
Procedure: To investigate biodistribution in apoE^−/− mice, animals at seven weeks after peri-adventitial application of CaCl2 or NaCl to carotid arteries were injected with 31±14 MBq (14±2 pg/kg) of ^99mTc-1, with (n=5) or without (n=6) pre-injection of an excess of the parent inhibitor 19 (23±8 ng/kg). Animals were kept under anesthesia for 60 min and blood samples were collected at various times post-injection. Tissue samples and body fluids were collected and weighed at 2 hours post-injection, and measured for their radioactivity by gamma-well counting (WIZARD2®, PerkinElmer). Data were expressed as percentage of injected dose (ID) per gram of tissue or mL of blood.
^99mTc-1 binding to carotid aneurysm and specificity in vivo were evaluated in apoE^−/− mice at seven weeks after peri-adventitial application of CaCl2 to left carotid arteries.

[8] = test system: suprarenal abdominal aorta (AAA); assay: microSPECT/CT imaging of AAA in angiotensin II-infused mice; format: in vivo, apoE−/− mice
Procedure: In addition, sixteen weeks-old male apoE^−/− (n=16) were infused with human angiotensin II (Ang II, 1000 ng/kg/min, Calbiochem), delivered by a subcutaneous osmotic minipump (Model 2004, Alzet) implanted under anesthesia (isoflurane 2%).
Animals were imaged using a dedicated high resolution small animal imaging system (X-SPECT, GammaMedica), using one mm low energy (for ^99mTc) pinhole collimators. The spatial resolution of this system for ^99mTc in tomographic images with a 1-mm pinhole collimator and 4 cm radius of rotation was 1.1 mm full-width half-maximum. Radiotracer (1 mCi for mice) was injected through an intravenous catheter. Anesthetized mice (with isoflurane) were placed in a fixed position under the camera. Three point sources of known activity (˜1 μCi) were placed in the field of view, but outside the body, to quantify tracer uptake and to verify the accuracy of image fusions. […]
After completion of microSPECT images CT imaging was performed (energy: 75 kV/280 μA, matrix: 512×512) to identify anatomical structure. […] Images were analyzed using Xeleris Functional Imaging Workstation (General Electric, Waukesha, Wis.). […] Activities of each organ was expressed as % ID using the point sources. […]
RNA was isolated from aortic tissue using GenElute Mammalian Total RNA Miniprep Kit (Sigma-Aldrich) and reverse-transcribed using QuantiTect Reverse Transcription Kit (Qiagen). […]

In the case of `CC(C)C[C@H]1C(=O)N[C@H](C(=O)N[C@@H](CCCNC(=N)N)C(=O)NCCNC(=O)c2ccc(N[N]=[Tc]345([PH](c6cccc(S(=O)(=O)O)c6)(c6cccc(S(=O)(=O)O)c6)c6cccc(S(=O)(=O)O)c6)[O]CC(CO)(C[O]3)[N]4CC(=O)[O]5)nc2)Cc2ccc(cc2)OCCC[C@@H]1C(=O)NO` [^99mTc-1], the “hepatobiliary excretion: bile activity” value ([1]; 2 h) is reported as 1.5±0.3 % ID/g, the “tissue uptake in control aorta” value ([1]; 2 h) is reported as 6.0±1.4 % ID/g and the blood pool activity ([1]; 1 h) is reported as 1.3±0.4 % ID/mL. It also gave a blood pool activity ([1]; 2 h) of 1.0±0.4 % ID/mL, a logD ([2]; n-octanol/Tris buffer, Octanol/Tris (pH = 7.4)) of -4.4 ± 0.1 and a logD ([2]; n-octanol/water, Octanol/water) of -4 ± 0.1. For the same molecule, the logP ([2]; n-octanol/water, read-out: Log P n-octanol/water) was -4 ± 0.1, the “water solubility (in words)” value (Aqueous solubility) was “high water solubility” and the “in vivo radiochemical stability (urine)” value [3] was “high radiochemical stability”. For the same molecule, the stability in saline [4] was “good stability”, the “decrease in aneurysm-to-aorta uptake ratio under blocking conditions” value [5] was 1.8 fold and the “decrease in carotid aneurysm tracer uptake on pre-injection of excess parent pan-MMP inhibitor” value ([5]; blocking vs no blocking) was 4.6 fold. For the same molecule, the “radiochemical stability in mouse blood” value [6] was “high radiochemical stability; also recorded: good stability; also recorded: single peak; also recorded: radiochemically stable”, the “tissue uptake by gamma well counting on pre-injection of parent pan-MMP inhibitor” value [7] was “significantly reduced” and the “left ventricle blood pool activity” value ([8]; AAA group) was 0.14±0.10 cpv/MBq. For the same molecule, the “left ventricle blood pool activity” value ([8]; low remodeling group) was 0.12±0.08 cpv/MBq.
